Laboratory results: patent US20230250066A1, “HERBICIDAL CINNOLINE DERIVATIVES” (SYNGENTA CROP PROTECTION AG, priority 2020, published 2023)

Legend:
Type in all cases: in vivo
[1] = test system: Echinochloa crus-galli (ECHCG); experiment: Pre-emergence herbicidal test; conditions: 1000 g/ha, evaluated after 13 days
Setaria faberi (SETFA) [2] = experiment: Pre-emergence herbicidal test; conditions: 1000 g/ha, evaluated after 13 days
[3] = test system: Amaranthus retoflexus (AMARE); experiment: Pre-emergence herbicidal test; conditions: 1000 g/ha, evaluated after 13 days
[4] = test system: Abutilon theophrasti (ABUTH); experiment: Pre-emergence herbicidal test; conditions: 1000 g/ha, evaluated after 13 days
[5] = test system: Ipomoea hederacea (IPOHE); experiment: Post-emergence herbicidal test; conditions: 1000 g/ha unless otherwise stated, evaluated after 13 days
How it was run: (§1)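 Damage score (0–5; 5=81-100%, 1=10-20%, 0=0%) read 13 d after spraying. Spray: acetone/water 50:50 + 0.5% Tween 20, 1000 g/ha unless stated.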

[6] = test system: Abutilon theophrasti (ABUTH); experiment: Post-emergence herbicidal test; conditions: 1000 g/ha unless otherwise stated, evaluated after 13 days
How it was run: as §1

[7] = test system: Amaranthus retoflexus (AMARE); experiment: Post-emergence herbicidal test; conditions: 1000 g/ha unless otherwise stated, evaluated after 13 days
How it was run: as §1

Setaria faberi (SETFA) [8] = experiment: Post-emergence herbicidal test; conditions: 1000 g/ha unless otherwise stated, evaluated after 13 days
How it was run: as §1

[9] = test system: Echinochloa crus-galli (ECHCG); experiment: Post-emergence herbicidal test; conditions: 1000 g/ha unless otherwise stated, evaluated after 13 days
How it was run: as §1

Zea mays (ZEAMX) [10] = experiment: Post-emergence herbicidal test; conditions: 1000 g/ha unless otherwise stated, evaluated after 13 days
How it was run: as §1

Zea mays (ZEAMX) [11] = experiment: Pre-emergence herbicidal test; conditions: 1000 g/ha, evaluated after 13 days
[12] = test system: Ipomoea hederacea (IPOHE); experiment: Pre-emergence herbicidal test; conditions: 1000 g/ha, evaluated after 13 days

SMILES | percentage damage caused to the plant, five-point scale, ECHCG [1] | percentage damage caused to the plant, five-point scale, SETFA (Setaria faberi (SETFA) [2]) | percentage damage caused to the plant, five-point scale, AMARE [3] | percentage damage caused to the plant, five-point scale, ABUTH [4] | percentage damage caused to the plant, IPOHE (five-point scale) [5] | percentage damage caused to the plant, ABUTH (five-point scale) [6] | percentage damage caused to the plant, AMARE (five-point scale) [7] | percentage damage caused to the plant, SETFA (five-point scale) (Setaria faberi (SETFA) [8]) | percentage damage caused to the plant, ECHCG (five-point scale) [9] | percentage damage caused to the plant, ZEAMX (five-point scale) (Zea mays (ZEAMX) [10]) | percentage damage caused to the plant, five-point scale, ZEAMX (Zea mays (ZEAMX) [11]) | percentage damage caused to the plant, five-point scale, IPOHE [12]
CS(=O)(=O)c1cccc2c1c(=O)c(C(=O)OC1CCOC1)nn2-c1ccc(OC(F)(F)F)cc1 (stereo not drawn) [Compound P70, tetrahydrofuran-3-yl 5-methylsulfonyl-4-oxo-1-[4-(trifluoromethoxy)phenyl]cinnoline-3-carboxylate] | 3 (3=41-60%) | 4 (4=61-80%) | 0 (0=0%) | 0 (0=0%) | 0 (0=0%) | 1 (1=10-20%) | 0 (0=0%) | 4 (4=61-80%) | 3 (3=41-60%) | 0 (0=0%) | 1 (1=10-20%) | 0 (0=0%)
C#CCCOC(=O)c1nn(-c2ccc(OC(F)(F)F)cc2)c2cccc(S(C)(=O)=O)c2c1=O [Compound P71, but-3-ynyl 5-methylsulfonyl-4-oxo-1-[4-(trifluoromethoxy)phenyl]cinnoline-3-carboxylate] | 4 (4=61-80%) | 5 (5=81-100%) | 0 (0=0%) | 0 (0=0%) | 1 (1=10-20%) | 0 (0=0%) | 0 (0=0%) | 3 (3=41-60%) | 3 (3=41-60%) | 1 (1=10-20%) | 0 (0=0%) | 0 (0=0%)
CC(C)COC(=O)c1nn(-c2ccc(OC(F)(F)F)cc2)c2cccc(S(C)(=O)=O)c2c1=O [Compound P72, isobutyl 5-methylsulfonyl-4-oxo-1-[4-(trifluoromethoxy)phenyl]cinnoline-3-carboxylate] | 4 (4=61-80%) | 4 (4=61-80%) | 0 (0=0%) | 0 (0=0%) | 1 (1=10-20%) | 0 (0=0%) | 0 (0=0%) | 4 (4=61-80%) | 3 (3=41-60%) | 1 (1=10-20%) | 0 (0=0%) | 0 (0=0%)
CS(=O)(=O)c1cccc2c1c(=O)c(C(=O)OCCC#N)nn2-c1ccc(OC(F)(F)F)cc1 [Compound P73, 2-cyanoethyl 5-methylsulfonyl-4-oxo-1-[4-(trifluoromethoxy)phenyl]cinnoline-3-carboxylate] | 3 (3=41-60%) | 5 (5=81-100%) | 0 (0=0%) | 0 (0=0%) | 1 (1=10-20%) | 0 (0=0%) | 0 (0=0%) | 4 (4=61-80%) | 3 (3=41-60%) | 1 (1=10-20%) | 0 (0=0%) | 0 (0=0%)
CC(OC(=O)c1nn(-c2ccc(OC(F)(F)F)cc2)c2cccc(S(C)(=O)=O)c2c1=O)C1CC1 (stereo not drawn) [Compound P74, 1-cyclopropylethyl 5-methylsulfonyl-4-oxo-1-[4-(trifluoromethoxy)phenyl]cinnoline-3-carboxylate] | 4 (4=61-80%) | 5 (5=81-100%) | 0 (0=0%) | 0 (0=0%) | 0 (0=0%) | 1 (1=10-20%) | 1 (1=10-20%) | 4 (4=61-80%) | 4 (4=61-80%) | 1 (1=10-20%) | 0 (0=0%) | 0 (0=0%)
CCCCCOC(=O)c1nn(-c2ccc(OC(F)(F)F)cc2)c2cccc(S(C)(=O)=O)c2c1=O [Compound P75, penyl 5-methylsulfonyl-4-oxo-1-[4-(trifluoromethoxy)phenyl]cinnoline-3-carboxylate] | 4 (4=61-80%) | 4 (4=61-80%) | 0 (0=0%) | 0 (0=0%) | 0 (0=0%) | 0 (0=0%) | 0 (0=0%) | 4 (4=61-80%) | 3 (3=41-60%) | 0 (0=0%) | 1 (1=10-20%) | 0 (0=0%)
CN(C)CCOC(=O)c1nn(-c2ccc(OC(F)(F)F)cc2)c2cccc(S(C)(=O)=O)c2c1=O [Compound P76, 2-(dimethylamino)ethyl 5-methylsulfonyl-4-oxo-1-[4-(trifluoromethoxy)phenyl]cinnoline-3-carboxylate] | 3 (3=41-60%) | 4 (4=61-80%) | 0 (0=0%) | 1 (1=10-20%) | 1 (1=10-20%) | 2 (2=21-40%) | 1 (1=10-20%) | 4 (4=61-80%) | 3 (3=41-60%) | 1 (1=10-20%) | 0 (0=0%) | 0 (0=0%)
CCCCCCCOC(=O)c1nn(-c2ccc(OC(F)(F)F)cc2)c2cccc(S(C)(=O)=O)c2c1=O [Compound P77, heptyl 5-methylsulfonyl-4-oxo-1-[4-(trifluoromethoxy)phenyl]cinnoline-3-carboxylate] | 3 (3=41-60%) | 5 (5=81-100%) | 0 (0=0%) | 0 (0=0%) | 0 (0=0%) | 1 (1=10-20%) | 0 (0=0%) | 4 (4=61-80%) | 3 (3=41-60%) | 0 (0=0%) | 0 (0=0%) | 0 (0=0%)
C#CCOC(=O)c1nn(-c2ccc(OC(F)(F)F)cc2)c2cccc(S(C)(=O)=O)c2c1=O [Compound P79, prop-2-ynyl 5-methylsulfonyl-4-oxo-1-[4-(trifluoromethoxy)phenyl]cinnoline-3-carboxylate] | 5 (5=81-100%) | 5 (5=81-100%) | 0 (0=0%) | 0 (0=0%) | 1 (1=10-20%) | 1 (1=10-20%) | 0 (0=0%) | 4 (4=61-80%) | 4 (4=61-80%) | 1 (1=10-20%) | 1 (1=10-20%) | 1 (1=10-20%)
